16 compounds from patent US10519169B2, “3-(1H-pyrrolo[2,3-C]pyridin-2-yl)-1 H-pyrazolo[4,3-B]pyridines and therapeutic uses thereof” (Samumed, LLC, priority 2015, dated 2019) can be followed below.

The subject of experiment [1] is primary human fibroblasts derived from IPF patients (LL29 cells) treated with TGF-β1. The experiment can be described thus: Inhibition of fibrotic process, αSMA staining in TGF-β1 treated LL29 fibroblasts. The note with it: Fibroblast; for EC50: 96 h, TGF-β1 20 ng/mL, 4 days, % cells positive for αSMA; for inhibition at 10 µM: given for EC50 >10 μM, TGF-β1, αSMA, read-out: percent inhibition at 10 μM. It counts as cell-based. An excerpt: Representative compounds were screened using primary human fibroblasts (derived from IPF patients) treated with TGF-β1 to determine their ability to inhibit the fibrotic process.
Primary human fibroblasts derived from IPF patients (LL29 cells) [^1Xiaoqiu Liu, et. al., “Fibrotic Lung Fibroblasts Show Blunted Inhibition by cAMP Due to Deficient cAMP Response Element-Binding Protein Phosphorylation”, Journal of Pharmacology and Experimental Therapeutics (2005), 315(2), 678-687; ^2Watts, K. L., et. al., “RhoA signaling modulates cyclin D1 expression in human lung fibroblasts; implications for idiopathic pulmonary fibrosis”, Respiratory Research (2006), 7(1), 88] were obtained from American Type Culture Collection (ATCC) and expanded in F12 medium supplemented with 15% Fetal Bovine Serum and Penicillin/Streptomycin.
Each compound was dissolved in DMSO as a 10 mM stock and used to prepare compound source plates. Serial dilution (1:2, 11-point dose-response curves from […] to […]) and compound transfer was performed using the ECHO 550 (Labcyte, Sunnyvale, Calif.) into 384-well clear bottom assay plates (Greiner Bio-One) with appropriate DMSO backfill for a final DMSO concentration of 0.1%. LL29 cells are plated at 1,500 cells/well in 80 μL/well F12 medium supplemented with 1% Fetal Bovine Serum. One hour after addition of the cells, TGF-β1 (Peprotech; 20 ng/mL) was added to the plates to induce fibrosis (ref. 1 and 2 above). Wells treated with TGF-β1 and containing DMSO were used as controls. Cells were incubated at 37° C. and 5% CO2 for 4 days. Following incubation for 4 days, SYTOX green nucleic acid stain (Life Technologies [Thermo Fisher Scientific]) was added to the wells at a final concentration of 1 μM and incubated at room temperature for 30 min. Cells were then fixed using 4% formaldehyde (Electron Microscopy Sciences), washed 3 times with PBS followed by blocking and permeabilization using 3% Bovine Serum Albumin (BSA; Sigma) and 0.3% Triton X-100 (Sigma) in PBS. Cells were then stained with antibody specific to α-smooth muscle actin (aSMA; Abcam) (ref. 1 and 2 above) in 3% Bovine Serum Albumin (BSA; Sigma) and 0.3% Triton X-100 (Sigma) in PBS, and incubated overnight at 4° C. Cells were then washed 3 times with PBS, followed by incubation with Alexa Flor-647 conjugated secondary antibody (Life Technologies [Thermo Fisher Scientific]) and DAPI at room temperature for 1 hour. Cells were then washed 3 times with PBS and plates were sealed for imaging. aSMA staining was imaged by excitation at 630 nm and emission at 665 nm and quantified using the Compartmental Analysis program on the CellInsight CX5 (Thermo Scientific). Dead or apoptotic cells were excluded from analysis based on positive SYTOX green staining. % of total cells positive for aSMA were counted in each well and normalized to the average of 11 wells treated with TGF-β1 on the same plate using Dotmatics' Studies Software. The normalized averages (fold change over untreated) of 3 replicate wells for each compound concentration were used to create dose-responses curves and EC50 values were calculated using non-linear regression curve fit in the Dotmatics' Studies Software. For EC50 of >10 μM, the percent inhibition at 10 μM is provided.

Experiment [2] concerns primary human mesenchymal stem cells (hMSCs). Kind of experiment: Chondrogenesis induction in hMSCs (chondrogenic nodules). It counts as cell-based. The conditions noted are these: 144 h, 6 days; for EC50: concentration required to induce 50% levels of chondrogenesis vs TGF-β3, read-out: Conc (nM) of 50% TGF-β3 activity; for Emax: nodules, relative to TGF-β3 positive control (10 ng/mL), read-out: Max. Activity as % TGF-β3 activity. As for the experimental part: Representative compounds were screened using primary human mesenchymal stem cells (hMSCs) to determine their ability to induce chondrogenesis (process by which cartilage is developed).
Primary human mesenchymal stem cells (hMSCs) were purchased from Lonza (Walkersville, Md.) and expanded in Mesenchymal Stem Cell Growth Media (Lonza). Cells between passage 3 and 6 were used for the experiments.
Each compound was dissolved in DMSO as a 10 mM stock and used to prepare compound source plates. Serial dilution (1:3, 6-point dose-response curves from 2700 nM to 10 nM) and compound transfer was performed using the ECHO 550 (Labcyte, Sunnyvale, Calif.) into 96-well clear bottom assay plates (Greiner Bio-One) with appropriate DMSO backfill for a final DMSO concentration of 0.03%. hMSCs were plated at 20,000 cells/well in 250 μL/well Incomplete Chondrogenic Induction Medium (Lonza; DMEM, dexamethasone, ascorbate, insulin-transferrin-selenium [ITS supplement], gentamycin-amphotericin [GA-1000], sodium pyruvate, proline and L-glutamine). TGF-03 (10 ng/mL) was used as a positive control for differentiation while negative control wells were treated with 75 nL DMSO for normalization and calculating EC50 values. Cells were incubated at 37° C. and 5% CO2 for 6 days. To image chondrogenic nodules, the cells were fixed using 4% formaldehyde (Electron Microscopy Sciences), and stained with 2 μg/mL Rhodamine B (Sigma-Aldrich) and 20 μM Nile Red (Sigma-Aldrich) [Johnson K., et. al, A Stem Cell-Based Approach to Cartilage Repair, Science, (2012), 336(6082), 717-721]. The nodules imaged (4 images per well at 4× magnification) by excitation at 531 nm and emission at 625 nm and quantified using the CellInsight CX5 (Thermo Scientific). Number of nodules in each well was normalized to the average of 3 DMSO treated wells on the same plate using Excel (Microsoft Inc.). The normalized averages (fold change over DMSO) of 3 replicate wells for each compound concentration were calculated. Due to solubility limitations of some of the compounds, curve fitting was incomplete leading to inaccurate EC50 determinations.
Using TGF-β3 as a positive control, the concentration of representative compounds required to induce 50% levels of chondrogenesis is reported. In addition, the maximum activity of each compound and the respective dose that each compound reached maximum chondrogenesis activity is reported.

Where only a bound is given, the exact number is not on record here.

`Fc1cccc(-c2cncc3[nH]c(-c4n[nH]c5ccc(-c6cccnc6)nc45)cc23)c1` [Compound 4, 3-(4-(3-Fluorophenyl)-1H-pyrrolo[2,3-c]pyridin-2-yl)-5-(pyridin-3-yl)-1H-pyrazolo[4,3-b]pyridine] displayed an EC50 in experiment [1] of 272 nM. Further, in experiment [2], the EC50 was 30 nM and the Emax was determined as 92%.

Take `CN(C)c1cncc(-c2ccc3[nH]nc(-c4cc5c(-c6cccc(F)c6)cncc5[nH]4)c3n2)c1` [Compound 7, 5-(3-(4-(3-Fluorophenyl)-1H-pyrrolo[2,3-c]pyridin-2-yl)-1H-pyrazolo[4,3-b]pyridin-5-yl)-N,N-dimethylpyridin-3-amine]: the EC50 in experiment [1] was 450 nM. Besides, in experiment [2], the EC50 came to 100 nM and the Emax came out at 85%.

In experiment [1], `Fc1cccc(-c2cncc3[nH]c(-c4n[nH]c5ccc(-c6cncc(CN7CCCCC7)c6)nc45)cc23)c1` [Compound 15, 3-(4-(3-Fluorophenyl)-1H-pyrrolo[2,3-c]pyridin-2-yl)-5-(5-(piperidin-1-ylmethyl)pyridin-3-yl)-1H-pyrazolo[4,3-b]pyridine] showed an EC50 greater than 10000 nM. For the same compound, in experiment [2], the EC50 came to 10 nM and the Emax amounted to 54%.

Take `Cc1ccncc1-c1ccc2[nH]nc(-c3cc4c(-c5ccc(F)cc5)cncc4[nH]3)c2n1` [Compound 33, 3-(4-(4-Fluorophenyl)-1H-pyrrolo[2,3-c]pyridin-2-yl)-5-(4-methylpyridin-3-yl)-1H-pyrazolo[4,3-b]pyridine]: the EC50 in experiment [1] is 1760 nM. For the same compound, the Emax in experiment [2] stood at 28%.

As for `O=C(Nc1cncc(-c2ccc3[nH]nc(-c4cc5c(-c6ccc(F)cc6)cncc5[nH]4)c3n2)c1)c1ccccc1` [Compound 39, N-(5-(3-(4-(4-Fluorophenyl)-1H-pyrrolo[2,3-c]pyridin-2-yl)-1H-pyrazolo [4,3-b]pyridin-5-yl)pyridin-3-yl)benzamide], in experiment [1], the EC50 was greater than 10000 nM and the inhibition at 10 µM is 39.8%.

Regarding `Fc1ccc(-c2cncc3[nH]c(-c4n[nH]c5ccc(-c6cncc(CN7CCC(F)(F)C7)c6)nc45)cc23)cc1` [Compound 54, 5-(5-((3,3-Difluoropyrrolidin-1-yl)methyl)pyridin-3-yl)-3-(4-(4-fluorophenyl)-1H-pyrrolo[2,3-c]pyridin-2-yl)-1H-pyrazolo[4,3-b]pyridine], the results for the EC50 in experiment [1] and in experiment [2] were 370 nM and 900 nM, respectively. For the same compound, the Emax in experiment [2] was 194%.

On to `CN(C)Cc1cncc(-c2ccc3[nH]nc(-c4cc5c(-c6ccccc6F)cncc5[nH]4)c3n2)c1` [Compound 69, 1-(5-(3-(4-(2-Fluorophenyl)-1H-pyrrolo[2,3-c]pyridin-2-yl)-1H-pyrazolo [4,3-b]pyridin-5-yl)pyridin-3-yl)-N,N-dimethylmethanamine], for which the EC50 turned out to be 1120 nM in experiment [1] and 30 nM in experiment [2]. The Emax in experiment [2] was 51%.

In experiment [1], `Cc1ccncc1-c1ccc2[nH]nc(-c3cc4c(-c5cccnc5)cncc4[nH]3)c2n1` [Compound 89, 5-(4-Methylpyridin-3-yl)-3-(4-(pyridin-3-yl)-1H-pyrrolo[2,3-c]pyridin-2-yl)-1H-pyrazolo[4,3-b]pyridine] yielded an EC50 of 1540 nM. In experiment [2], the EC50 was 10 nM and the Emax was determined as 149%.

In turn, `FC1(F)CCN(Cc2cncc(-c3ccc4[nH]nc(-c5cc6c(-c7cccnc7)cncc6[nH]5)c4n3)c2)C1` [Compound 110, 5-(5-((3,3-Difluoropyrrolidin-1-yl)methyl)pyridin-3-yl)-3-(4-(pyridin-3-yl)-1H-pyrrolo[2,3-c]pyridin-2-yl)-1H-pyrazolo[4,3-b]pyridine] displayed an EC50 in experiment [1] of 329 nM. For the same compound, the Emax in experiment [2] came out at 23%.

In the case of `Nc1cncc(-c2ccc3[nH]nc(-c4cc5c(-c6ccncc6)cncc5[nH]4)c3n2)c1` [Compound 115, 5-(3-(4-(Pyridin-4-yl)-1H-pyrrolo[2,3-c]pyridin-2-yl)-1H-pyrazolo[4,3-b]pyridin-5-yl)pyridin-3-amine], the values for the EC50 in experiment [1] and in experiment [2] were 6650 nM and 30 nM, respectively. Also, the Emax in experiment [2] stood at 53%.

The compound `c1cc(-c2cncc3[nH]c(-c4n[nH]c5ccc(-c6cncc(CN7CCCCC7)c6)nc45)cc23)ccn1` [Compound 127, 5-(5-(Piperidin-1-ylmethyl)pyridin-3-yl)-3-(4-(pyridin-4-yl)-1H-pyrrolo[2,3-c]pyridin-2-yl)-1H-pyrazolo[4,3-b]pyridine] came in with an EC50 in experiment [1] of 4960 nM. In experiment [2], the EC50 was determined as 10 nM and the Emax stood at 97%.

For `O=C(Nc1cncc(-c2ccc3[nH]nc(-c4cc5ccncc5[nH]4)c3n2)c1)C1CCCC1` [Compound 274, N-(5-(3-(1H-Pyrrolo[2,3-c]pyridin-2-yl)-1H-pyrazolo[4,3-b]pyridin-5-yl)pyridin-3-yl)cyclopentanecarboxamide], the EC50 in experiment [1] worked out at 656 nM; in experiment [2], 30 nM. Besides, the Emax in experiment [2] was 50%.

In experiment [1], `c1ccc(-c2ccc3[nH]nc(-c4cc5ccncc5[nH]4)c3n2)nc1` [Compound 280, 5-(Pyridin-2-yl)-3-(1H-pyrrolo[2,3-c]pyridin-2-yl)-1H-pyrazolo[4,3-b]pyridine] yielded an EC50 of 1250 nM.

With `O=C(Cc1ccccc1)Nc1cncc(-c2ccc3[nH]nc(-c4cc5c(-c6ccoc6)cncc5[nH]4)c3n2)c1` [Compound 318, N-(5-(3-(4-(Furan-3-yl)-1H-pyrrolo[2,3-c]pyridin-2-yl)-1H-pyrazolo[4,3-b]pyridin-5-yl)pyridin-3-yl)-2-phenylacetamide], in experiment [1], the EC50 was greater than 10000 nM and the inhibition at 10 µM was found to be 35.5%.

The compound `Cc1ncc(-c2ccc3[nH]nc(-c4cc5c(-c6ccncc6)cncc5[nH]4)c3n2)n1C` [Compound 573, 5-(1,2-Dimethyl-1H-imidazol-5-yl)-3-(4-(pyridin-4-yl)-1H-pyrrolo[2,3-c]pyridin-2-yl)-1H-pyrazolo[4,3-b]pyridine] yielded an EC50 in experiment [1] of 2190 nM.

For the compound `c1cc(-c2cncc3[nH]c(-c4n[nH]c5ccc(-c6cncc(OCCN7CCCC7)c6)nc45)cc23)co1` [Compound 690, 3-(4-(Furan-3-yl)-1H-pyrrolo[2,3-c]pyridin-2-yl)-5-(5-(2-(pyrrolidin-1-yl)ethoxy)pyridin-3-yl)-1H-pyrazolo[4,3-b]pyridine], in experiment [1], the EC50 is greater than 10000 nM and the inhibition at 10 µM is 29.5%.
